Tests used:
[1] = target: T1, human recombinant adrenergic α2B receptor (Homo sapiens, UniProt P18089); assay: Radioligand binding, adrenergic α2B ([3H]Rauwolscine); details: compound at 0.03 μM, [3H]Rauwolscine, repeat assays, each datapoint shown; for Percentage inhibition of ligand binding, Adrenergic α2B: 0.03 µM; for inhibition at 0.03 µM: read-out: Percentage inhibition of ligand binding, Adrenergic α2B
T1 construct: expressed in transfected cells; host or cells: CHO-K1
T1 sequence (P18089 1-450): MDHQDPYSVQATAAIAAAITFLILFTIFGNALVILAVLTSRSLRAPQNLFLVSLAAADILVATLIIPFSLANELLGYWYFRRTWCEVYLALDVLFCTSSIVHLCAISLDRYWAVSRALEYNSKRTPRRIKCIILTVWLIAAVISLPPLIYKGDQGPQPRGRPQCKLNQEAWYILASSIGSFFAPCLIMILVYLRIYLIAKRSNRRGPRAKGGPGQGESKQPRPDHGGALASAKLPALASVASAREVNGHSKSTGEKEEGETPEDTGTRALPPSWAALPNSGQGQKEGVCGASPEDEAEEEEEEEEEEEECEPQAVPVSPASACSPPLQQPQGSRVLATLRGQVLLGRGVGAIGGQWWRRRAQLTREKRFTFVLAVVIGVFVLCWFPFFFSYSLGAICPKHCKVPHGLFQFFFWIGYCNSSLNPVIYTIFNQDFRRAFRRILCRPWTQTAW
Summary of the method: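 Values are percent inhibition of specific radioligand binding. The receptor, expressed in CHO-K1 cells, was exposed to 2.5 nM [3H]Rauwolscine at 25° C for 60 min, with 10 μM Prazosin marking non-specific binding.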

[2] = target: T2, human recombinant adrenergic α2A receptor (Homo sapiens, UniProt P08913); assay: Radioligand binding, adrenergic α2A ([3H]MK-912); details: compound at 0.1 μM, [3H]MK-912, repeat assays, each datapoint shown; for Percentage inhibition of ligand binding, Adrenergic α2A: 0.1 µM; for inhibition at 0.1 µM: read-out: Percentage inhibition of ligand binding, Adrenergic α2A
T2 construct: expressed in transfected cells; host or cells: insect Sf9 cells
T2 sequence (P08913 1-465): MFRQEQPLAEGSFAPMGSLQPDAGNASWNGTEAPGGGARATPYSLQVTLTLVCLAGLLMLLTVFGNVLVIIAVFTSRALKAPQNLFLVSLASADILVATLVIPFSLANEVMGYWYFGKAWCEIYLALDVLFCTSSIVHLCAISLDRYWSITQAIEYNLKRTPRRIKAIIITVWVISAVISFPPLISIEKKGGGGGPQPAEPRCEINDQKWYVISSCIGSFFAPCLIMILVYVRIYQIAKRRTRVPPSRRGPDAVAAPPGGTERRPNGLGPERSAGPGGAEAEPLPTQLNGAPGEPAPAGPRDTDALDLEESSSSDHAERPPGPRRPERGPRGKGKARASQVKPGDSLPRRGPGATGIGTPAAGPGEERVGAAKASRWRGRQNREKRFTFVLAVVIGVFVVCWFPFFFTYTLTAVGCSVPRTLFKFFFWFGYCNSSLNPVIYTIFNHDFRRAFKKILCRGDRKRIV
Summary of the method: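 Receptor expressed in Sf9 cells, in 50 mM Tris-HCl pH 7.4, 12.5 mM MgCl2, 2 mM EDTA; compounds incubated with 1 nM [3H]MK-912 for 60 min at 25 °C.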

[3] = target: T3, rat adrenergic α1B receptor (Rattus norvegicus, UniProt P15823); assay: Radioligand binding, adrenergic α1B ([3H]Prazosin); details: compound at 0.1 μM, [3H]Prazosin, repeat assays, each datapoint shown; for Percentage inhibition of ligand binding, Adrenergic α1B: 0.1 µM; for inhibition at 0.1 µM: read-out: Percentage inhibition of ligand binding, Adrenergic α1B
T3 construct: rat adrenergic α1B receptor obtained from Wistar Rat liver; from tissue; host or cells: Wistar rat liver
T3 sequence (P15823 1-515): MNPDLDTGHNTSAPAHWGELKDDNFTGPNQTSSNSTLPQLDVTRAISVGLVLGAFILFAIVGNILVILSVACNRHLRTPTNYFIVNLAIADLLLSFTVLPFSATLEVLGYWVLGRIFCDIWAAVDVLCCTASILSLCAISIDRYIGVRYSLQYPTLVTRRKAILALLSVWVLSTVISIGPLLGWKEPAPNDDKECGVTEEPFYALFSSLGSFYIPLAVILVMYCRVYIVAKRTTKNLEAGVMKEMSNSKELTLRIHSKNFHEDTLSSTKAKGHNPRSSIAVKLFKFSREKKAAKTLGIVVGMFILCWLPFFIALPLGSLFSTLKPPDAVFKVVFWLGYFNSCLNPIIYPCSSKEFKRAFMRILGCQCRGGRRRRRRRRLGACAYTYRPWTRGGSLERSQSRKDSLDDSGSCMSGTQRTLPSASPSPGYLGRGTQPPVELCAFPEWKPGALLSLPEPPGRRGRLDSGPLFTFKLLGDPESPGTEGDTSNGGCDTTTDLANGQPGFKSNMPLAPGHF
Summary of the method: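 Rat α1B receptor from Wistar rat liver was incubated with 0.25 nM [3H]prazosin for 60 min at 25 °C in 50 mM Tris-HCl, pH 7.4, 0.5 mM EDTA. Non-specific binding was defined with 10 μM phentolamine. Bound radioligand was measured by filtration and counting, reported as percent inhibition of specific binding.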

Row | Compound | Percentage inhibition of ligand binding, Adrenergic α2B [1] | Percentage inhibition of ligand binding, Adrenergic α2A [2] | Percentage inhibition of ligand binding, Adrenergic α1B [3] | inhibition at 0.1 µM [2] | inhibition at 0.1 µM [3] | inhibition at 0.03 µM [1]
1 | Cc1ccc2c(c1)c1c(n2CC(O)c2ccncc2)CCN2CCCCC12 (single isomer, unassigned) [47b] | 119% | 41% | 70% | – | – | –
2 | Cc1ccc2c(c1)c1c(n2CC(O)c2ccncc2)CCN2CCCCC12 (single isomer, unassigned) [47c] | 53% | 4% | 6% | – | – | –
3 | Cc1ccc2c(c1)c1c(n2CC(O)c2ccncc2)CCN2CCCCC12 (single isomer, unassigned) [47d] | 30% | −3% | 5% | – | – | –
4 | CN1CCc2c(c3cccc(Br)c3n2CC(O)c2ccncc2)C1 (single isomer, unassigned) [48a] | 58% | – | – | 12% | 16% | –
5 | CN1CCc2c(c3cccc(Br)c3n2CC(O)c2ccncc2)C1 (single isomer, unassigned) [48b] | 86% | 17% | 14% | – | – | –
6 | CC(=O)c1ccc2c(c1)c1c(n2CC(O)c2ccncc2)CCN(C)C1 (single isomer, unassigned) [49a, 1-(2,3,4,5-tetrahydro-5-(2-hydroxy-2-(pyridin-4-yl)ethyl)-2-methyl-1H-pyrido[4,3-b]indol-8-yl)ethanone] | – | 1% | – | – | 4% | 18%
7 | CC(=O)c1ccc2c(c1)c1c(n2CC(O)c2ccncc2)CCN(C)C1 (single isomer, unassigned) [49b, 1-(2,3,4,5-tetrahydro-5-(2-hydroxy-2-(pyridin-4-yl)ethyl)-2-methyl-1H-pyrido[4,3-b]indol-8-yl)ethanone] | 19% | 6% | 5% | – | – | –
8 | COc1ccc(C(O)Cn2c3c(c4cc(C)ccc42)CN(C)CC3)cn1 (single isomer, unassigned) [51a, 2-(2,8-dimethyl-1,2,3,4-tetrahydro-pyrido[4,3-b]indol-5-yl)-1-(6-methoxy-pyridin-3-yl)-ethanol] | 21% | 11% | 8% | – | – | –
9 | COc1ccc(C(O)Cn2c3c(c4cc(C)ccc42)CN(C)CC3)cn1 (single isomer, unassigned) [51b, 2-(2,8-dimethyl-1,2,3,4-tetrahydro-pyrido[4,3-b]indol-5-yl)-1-(6-methoxy-pyridin-3-yl)-ethanol] | 90% | 26% | 36% | – | – | –
10 | CN1CCc2c(c3ccc(Cl)cc3n2CC(O)c2ccncc2)C1 (single isomer, unassigned) [53a, 2-(7-chloro-2-methyl-3,4-dihydro-1H-pyrido[4,3-b]indol-5(2H)-yl)-1-(pyridin-4-yl)ethanol] | 37% | – | – | 10% | 12% | –
11 | CN1CCc2c(c3ccc(Cl)cc3n2CC(O)c2ccncc2)C1 (single isomer, unassigned) [53b, 2-(7-chloro-2-methyl-3,4-dihydro-1H-pyrido[4,3-b]indol-5(2H)-yl)-1-(pyridin-4-yl)ethanol] | 85% | 12% | 14% | – | – | –
12 | Cc1ccc2c(c1)c1c(n2CC(OC(=O)C(C)C)c2ccncc2)CCN(C)C1 (single isomer, unassigned) [54a, 2-(1,2,3,4-tetrahydro-2,8-dimethylpyrido[4,3-b]indol-5-yl)-1-(pyridin-4-yl)ethyl isobutyrate] | – | 30% | 39% | – | – | 105%
13 | Cc1ccc2c(c1)c1c(n2CC(OC(=O)C(C)C)c2ccncc2)CCN(C)C1 (single isomer, unassigned) [54b, 2-(1,2,3,4-tetrahydro-2,8-dimethylpyrido[4,3-b]indol-5-yl)-1-(pyridin-4-yl)ethyl isobutyrate] | 106% | 66% | 71% | – | – | –
14 | Cc1cnc2c(c1)c1c(n2CC(O)c2ccncc2)CCN(C)C1 (single isomer, unassigned) [55a, 2-(3,6-dimethyl-5,6,7,8-tetrahydro-1,6,9-triaza-fluoren-9-yl)-1-pyridin-4-yl-ethanol] | 14% | 11% | 28% | – | – | –
15 | Cc1cnc2c(c1)c1c(n2CC(O)c2ccncc2)CCN(C)C1 (single isomer, unassigned) [55b, 2-(3,6-dimethyl-5,6,7,8-tetrahydro-1,6,9-triaza-fluoren-9-yl)-1-pyridin-4-yl-ethanol] | 67% | 7% | 57% | – | – | –
16 | Cc1ccc2c(c1)c1c(n2CC(C)(O)c2ccc[n+]([O-])c2)CCN(C)C1 (single isomer, unassigned) [56a] | – | – | 1% | 11% | – | 20%
17 | Cc1ccc2c(c1)c1c(n2CC(C)(O)c2ccc[n+]([O-])c2)CCN(C)C1 (single isomer, unassigned) [56b] | 28% | 17% | 6% | – | – | –
18 | CN1CCc2c(c3cccc(Cl)c3n2CC(C)(O)c2cccnc2)C1 (single isomer, unassigned) [57a, 1-(6-chloro-2-methyl-1,2,3,4-tetrahydro-pyrido[4,3-b]indol-5-yl)-2-pyridin-3-yl-propan-2-ol] | 16% | – | 3% | 22% | – | –
19 | CN1CCc2c(c3cccc(Cl)c3n2CC(C)(O)c2cccnc2)C1 (single isomer, unassigned) [57b, 1-(6-chloro-2-methyl-1,2,3,4-tetrahydro-pyrido[4,3-b]indol-5-yl)-2-pyridin-3-yl-propan-2-ol] | 84% | 24% | 9% | – | – | –
